Source: PMC7409197, “Adenosine Receptors as Neuroinflammation Modulators: Role of A1 Agonists and A2A Antagonists” (Cells, 2020)
pEC50, pIC50, pKi: −log10 of the molar value.

What was measured:
SH-SY5Y cells = system: SH-SY5Y cells; set-up: method as in PMID 30614535; settings: different concentrations; cited from earlier work
human A1AR = target: human A1AR; set-up: method as in PMID 30614535; settings: CHO cells stably transfected with human ARs; read-out: KiA1AR; cited from earlier work
human A3AR = target: human A3AR; set-up: method as in PMID 30614535; settings: CHO cells stably transfected with human ARs; read-out: KiA3AR; cited from earlier work
[1] = system: mouse ileum contractility; set-up: method as in PMID 30614535; settings: ex vivo mouse ileum; cited from earlier work
hA1AR = system: hA1AR; set-up: method as in PMID 30614535; settings: inhibition of adenyl cyclase activity induced by forskolin, cited from earlier work
mixed glial cells [2] = experiment: CellTiter 96 AQueous One (MTS) cell viability, ligands alone, mixed glial cells; type: cell-based, rat; settings: for toxicity in vitro (cell viability): compared with CCPA and ZM241385; for cell viability vs. control: ligand alone
Method: Newborn male Wistar rats were sacrificed and mixed glial cell cultures were obtained from the cerebral cortices. Cerebral cortices were dissected, and meninges were cleared away. Tissues were treated with trypsin solution (trypsin 0.05% (w/v) trypsin-EDTA 5 mM) for 25 min at 37 °C. The tissue was fully disaggregated by pipetting and the dissociated cells were seeded in a 6-well plate with Dulbecco’s modified Eagle’s/High glucose medium enriched with 100 U/mL penicillin, 100 µg/mL streptomycin and 10% FBS. Fresh medium was changed the next day and then every 3 days decreasing the quantity of FBS. All experiments were carried out after 7–9 days of plating.
Mixed glial cell cultures were divided into 2 groups, one to study A1AR partial agonists and another for A2AAR antagonists. Cells from the first group were pre-treated with 2 µL at three different concentrations of C1 for 15, 30 or 60 min and then with further addition of a pro-inflammatory cocktail of cytokines (TNF-α, 20 ng/mL; IL-1β, 20 ng/mL; IFN-γ 20 ng/mL) for 48 h. […] To study C2 cells were pre-treated with the same CK cocktail for 48 h and then with 2 µL of C2 at three different concentrations for 15, 30, or 60 min (Scheme 1). ZM241385, a well known A2AAR antagonist, was used as reference compound. Furthermore, ligands and CK were tested alone for 15, 30 or 60 min and 48 h respectively.
1.7 × 10^4 mixed glial cells were cultured in 98 μL of the specific medium in a 96 well plate overnight. The next day 2 μL of ligand or CK cocktail were added to the well. After all treatments, 20 µL of CellTiter 96® AQueous One Solution Reagent was added in a final volume of 100 µL. Absorbance was read at 490 nm using the plate reader GENiosPro. Cell viability was calculated as percentage using the following formula: Cell viability =OD mean of treated cells/OD mean of control cells × 100

human A2AAR = target: human A2AAR; set-up: method as in PMID 30614535; settings: CHO cells stably transfected with human ARs; read-out: KiA2AAR; cited from earlier work
A2AAR [3] = target: T1, A2AAR (Homo sapiens, UniProt P29274); experiment: A2AAR functional antagonism (IC50), method not described; type: biochemical; settings: unpublished results of the authors; read-out: IC50A2AAR
A1AR = target: T2, A1AR (Homo sapiens, UniProt P30542); experiment: A1AR affinity (Ki), method not described; type: binding; settings: unpublished results of the authors; read-out: KiA1AR
T2 sequence (P30542 1-326): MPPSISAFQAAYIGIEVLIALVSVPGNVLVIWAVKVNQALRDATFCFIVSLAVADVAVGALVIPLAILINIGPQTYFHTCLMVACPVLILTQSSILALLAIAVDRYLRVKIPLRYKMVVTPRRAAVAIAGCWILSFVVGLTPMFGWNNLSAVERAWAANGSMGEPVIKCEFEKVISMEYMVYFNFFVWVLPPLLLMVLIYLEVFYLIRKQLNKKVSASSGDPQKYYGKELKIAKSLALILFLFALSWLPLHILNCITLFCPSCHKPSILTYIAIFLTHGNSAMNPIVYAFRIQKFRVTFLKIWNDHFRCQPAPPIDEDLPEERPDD

A2AAR [4] = target: T1, A2AAR; experiment: A2AAR affinity (Ki), method not described; type: binding; settings: unpublished results of the authors; read-out: KiA2AAR
A3AR = target: T3, A3AR (Homo sapiens, UniProt P0DMS8); experiment: A3AR affinity (Ki), method not described; type: binding; settings: unpublished results of the authors; read-out: KiA3AR
T3 sequence (P0DMS8 1-318): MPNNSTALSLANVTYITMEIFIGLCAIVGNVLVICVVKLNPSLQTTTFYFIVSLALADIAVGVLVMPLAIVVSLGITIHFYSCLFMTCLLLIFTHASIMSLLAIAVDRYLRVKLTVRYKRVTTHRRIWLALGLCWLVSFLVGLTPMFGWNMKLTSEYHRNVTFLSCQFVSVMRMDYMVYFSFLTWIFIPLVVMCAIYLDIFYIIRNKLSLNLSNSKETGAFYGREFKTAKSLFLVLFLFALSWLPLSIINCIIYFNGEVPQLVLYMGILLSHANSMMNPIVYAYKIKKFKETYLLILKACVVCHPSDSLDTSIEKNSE

mixed glial cells [5] = experiment: Trypan blue exclusion test in mixed glial cells; type: cell-based, rat; settings: 30 min
Method: 6 × 10^5 mixed glial cells were seeded in a six well plate and after 24 h incubated with C2 10 nM alone or in presence of CK cocktail. After 30 min at 37 °C cells were detached with Trypsin-EDTA solution and 10 µL of cells were added to 40 μL of 0.4% trypan blue solution. Cells were counted with a Neubauer chamber and the number of live cells was calculated.

T1 sequence (P29274 whole entry): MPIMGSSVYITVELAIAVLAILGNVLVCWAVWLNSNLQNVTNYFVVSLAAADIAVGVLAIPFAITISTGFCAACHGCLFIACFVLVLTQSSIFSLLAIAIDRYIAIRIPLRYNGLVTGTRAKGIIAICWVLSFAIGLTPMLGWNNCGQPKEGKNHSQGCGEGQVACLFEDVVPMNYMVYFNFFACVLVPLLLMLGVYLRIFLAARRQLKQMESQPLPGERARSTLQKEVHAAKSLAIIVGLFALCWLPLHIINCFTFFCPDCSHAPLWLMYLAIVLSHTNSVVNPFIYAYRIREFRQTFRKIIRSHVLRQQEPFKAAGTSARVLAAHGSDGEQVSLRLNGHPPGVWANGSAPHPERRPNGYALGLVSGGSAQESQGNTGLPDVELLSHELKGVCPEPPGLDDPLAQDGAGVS

Row | SMILES | protection from oxygen-glucose deprivation (OGD) (SH-SY5Y cells) | pKi (human A1AR) | pKi (human A3AR) | maximal reduction of contractility relative to full agonist CCPA [1] | α (intrinsic activity, partial agonist) (hA1AR) | pEC50 (hA1AR; read-out: EC50A1AR) | toxicity in vitro (cell viability) (mixed glial cells [2]) | cell viability vs. control (mixed glial cells [2]; 5.5 µM, 30 min) | cell viability vs. control (mixed glial cells [2]; 30 µM, 15 min) | pKi (human A2AAR) | pIC50 (A2AAR [3]) | pKi (A1AR) | pKi (A2AAR [4]) | pKi (A3AR) | live cells vs. control (trypan blue) (mixed glial cells [5]; 10 nM alone) | number of cells vs. control (trypan blue) (mixed glial cells [5]; 10 nM, after aggression with CK cocktail) | cell viability vs. control (mixed glial cells [2]; 10 nM, 15 min) | cell viability vs. control (mixed glial cells [2]; 10 nM, 30 min) | cell viability vs. control (mixed glial cells [2]; 10 nM, 60 min) | cell viability vs. control (mixed glial cells [2]; 60 nM, tendency to toxicity)
1 | OC[C@H]1O[C@@H](n2cnc3c(NC4CCCC4)nc(Cl)nc32)C[C@@H]1O [Compound C1, 2-chloro-N^6-cyclopentyl-2′-deoxyadenosine] | protect SH-SY5Y cells from oxygen-glucose deprivation (OGD) | 6.26 | 5.25 | 75% | 0.70 | 6.08 | no toxic effect | 116 ± 1.7% | 117 ± 1.3% | 4.61 |  |  |  |  |  |  |  |  |  | 
2 | CCn1c(Cl)nc2c(N)nc(OCCc3ccccc3)nc21 [Compound C2, 8-chloro-9-ethyl-2-phenethoxyadenine] |  |  |  |  |  |  | no toxic effect |  |  |  | 6.60 | 7.77 | 9.12 | 6.64 | 123 ± 4.5 | 129 ± 3.5 | 110 ± 2.7% | 127 ± 3.1% | 125 ± 4.3% | ~80%
